From US6106822A, “Hormone and growth factor phosphoglycokine mimetics from mycobacterium” (University College of London, priority 1995, dated 2000)

How the values were obtained:
[1] = infusion; normal rats given a glucose load or streptozotocin-treated rats; cited from earlier work
[2] = system: isolated adipocytes; assay: lipogenesis assay (incorporation of labelled glucose into lipids of isolated adipocytes); assay type: cell-based, rat; conditions: 10 μl of stock solution in final volume of 1.25 ml
Experimental: The activation of lipogenesis is monitored by measuring the incorporation of uniformly labelled glucose into lipids of isolated adipocytes as described by Rodbell in J. Biol. Chem. (1964) 239, 375-380.
For the lipogenesis assay, 10 μl of the stock solution is added to a final volume of 1.25 ml.

Compound | activity of glycogen synthase I [1] | plasma glucose [1] | Lipogensis (% stimulation) [2] [%]
OC1C(O)C(O)C(O)C(O)C1O (stereo not drawn) [chiro-inositol] | enhanced activity of glycogen synthase I | decreased plasma glucose | 
Insulin |  |  | 273
